Assay results as given in ChEMBL document CHEMBL1146137, “Synthesis and evaluation of febrifugine analogues as potential antimalarial agents” (Bioorg Med Chem Lett, 2006).

What was measured:
Plasmodium falciparum [1] = assay: Antimalarial activity against chloroquine-sensitive Plasmodium falciparum D6; assay type: functional, organism-based
Plasmodium falciparum [2] = assay: Antimalarial activity against chloroquine-resistant Plasmodium falciparum W2; assay type: functional, organism-based
Hepatocyte = assay: Cytotoxicity against rat hepatocytes; assay type: functional, cell-based

## O=C(C[C@H]1NCCC[C@@H]1O)Cn1cnc2ccncc2c1=O
Plasmodium falciparum [1]
  IC50: 1.5 nM
Plasmodium falciparum [2]
  IC50: 1.8 nM
Hepatocyte
  IC50: 17000 nM

## O=C(C[C@@H]1NCCC[C@H]1O)Cn1cnc2ccccc2c1=O [FEBRIFUGINE]
Plasmodium falciparum [1]
  IC50: 1.6 nM
Plasmodium falciparum [2]
  IC50: 1.9 nM
Hepatocyte
  IC50: 169 nM

## CCN(CC)CCCC(C)Nc1ccnc2cc(Cl)ccc12 (stereo unspecified) [CHLOROQUINE]
Hepatocyte
  IC50: 19000 nM

## O=C(C[C@H]1NCCC[C@@H]1O)Cn1cnc2ccc(C(F)(F)F)cc2c1=O
Plasmodium falciparum [1]
  IC50: 14 nM
Plasmodium falciparum [2]
  IC50: 16 nM
Hepatocyte
  IC50: 15000 nM

## CC(C)(C)c1cccc2ncn(CC(=O)C[C@H]3NCCC[C@@H]3O)c(=O)c12
Plasmodium falciparum [1]
  IC50: 132 nM
Plasmodium falciparum [2]
  IC50: 160 nM
Hepatocyte
  IC50: 70000 nM

## CC(C)(C)c1ccc2ncn(CC(=O)C[C@H]3NCCC[C@@H]3O)c(=O)c2c1
Plasmodium falciparum [1]
  IC50: 165 nM
Plasmodium falciparum [2]
  IC50: 188 nM

## O=C(C[C@H]1NCCC[C@@H]1O)Cn1cnc2ccc(F)cc2c1=O
Plasmodium falciparum [1]
  IC50: 4.7 nM
Plasmodium falciparum [2]
  IC50: 5 nM
Hepatocyte
  IC50: 13000 nM

## O=C(C[C@H]1NCCC[C@@H]1O)Cn1cnc2cccc(C(F)(F)F)c2c1=O
Plasmodium falciparum [1]
  IC50: 0.43 nM
Plasmodium falciparum [2]
  IC50: 0.41 nM
Hepatocyte
  IC50: 19000 nM

## COc1cccc2c(=O)n(CC(=O)C[C@H]3NCCC[C@@H]3O)cnc12
Plasmodium falciparum [1]
  IC50: 1.2 nM
Plasmodium falciparum [2]
  IC50: 1.3 nM
Hepatocyte
  IC50: 16 nM

## O=C(C[C@H]1NCCC[C@@H]1O)Cn1cnc2cnccc2c1=O
Plasmodium falciparum [1]
  IC50: 63 nM
Plasmodium falciparum [2]
  IC50: 73 nM
Hepatocyte
  IC50: 19000 nM

## O=C(C[C@H]1NCCC[C@@H]1O)Cn1cnc2c(F)cccc2c1=O
Plasmodium falciparum [1]
  IC50: 103 nM
Plasmodium falciparum [2]
  IC50: 100 nM
Hepatocyte
  IC50: 16000 nM

## COc1ccc2c(=O)n(CC(=O)C[C@H]3NCCC[C@@H]3O)cnc2c1
Plasmodium falciparum [1]
  IC50: 1.4 nM
Plasmodium falciparum [2]
  IC50: 1.3 nM
Hepatocyte
  IC50: 15 nM

## O=C(C[C@H]1NCCC[C@@H]1O)Cn1cnc2cccc(F)c2c1=O
Plasmodium falciparum [1]
  IC50: 1.3 nM
Plasmodium falciparum [2]
  IC50: 1.3 nM
Hepatocyte
  IC50: 19000 nM

## Cc1ccc2c(=O)n(CC(=O)C[C@H]3NCCC[C@@H]3O)cnc2c1
Plasmodium falciparum [1]
  IC50: 2 nM
Plasmodium falciparum [2]
  IC50: 2.2 nM
Hepatocyte
  IC50: 117 nM

## O=C(C[C@H]1NCCC[C@@H]1O)Cn1cnc2ncccc2c1=O
Plasmodium falciparum [1]
  IC50: 70 nM
Plasmodium falciparum [2]
  IC50: 109 nM
Hepatocyte
  IC50: 22000 nM

## O=C(C[C@H]1NCCC[C@@H]1O)Cn1cnc2cccnc2c1=O
Plasmodium falciparum [1]
  IC50: 1.2 nM
Plasmodium falciparum [2]
  IC50: 1.3 nM
Hepatocyte
  IC50: 18000 nM

## O=C(C[C@H]1NCCC[C@@H]1O)Cn1cnc2ccc(F)c(F)c2c1=O
Plasmodium falciparum [1]
  IC50: 0.33 nM
Plasmodium falciparum [2]
  IC50: 0.39 nM
Hepatocyte
  IC50: 17000 nM

## Cc1cccc2c(=O)n(CC(=O)C[C@H]3NCCC[C@@H]3O)cnc12
Plasmodium falciparum [1]
  IC50: 1.7 nM
Plasmodium falciparum [2]
  IC50: 1.9 nM
Hepatocyte
  IC50: 140 nM
